Assay results: patent US8188128B2, “Opioid receptor subtype-selective agents” (The University of Medicine and Dentistry of New Jersey, priority 2005, dated 2012)
Like-named read-outs stand apart in the source and are kept apart here.

Experiments:
[1] = target: T1, delta receptor (Mus musculus, UniProt P32300); experiment: Opioid receptor binding assay, δ, [3H]DPDPE, HEK 293 cell membranes; set-up: species or system rat; conditions: for Selectivity κ/δ / Selectivity μ/δ: ratio of IC50 values; for IC50: compounds of Formula II, Table III
T1 construct: expressed in transfected cells
Procedure: (§1) Receptor binding assay: Cell membrane preparations were obtained from HEK 293-stable transfectants expressing either the murine δ or μ or the human κ receptor. Opioid receptor binding assays were conducted in duplicate on membrane preparations that had been resuspended in 50 mM Tris-HCl, pH 7.5, utilizing [^3H]DPDPE, [^3H]DAMGO and [^3H]U69593 as radiologand for δ, μ, and κ respectively and 10 μM cyclazocine to define non-specific binding. Following a 1 hour incubation on ice, binding assays were terminated by filtration through Whatman GF/B filters. Filters were soaked in Ecoscint liquid scintillation solution (National Diagnostics, Manville, N.J.) and filter-bound radioactivity was measured using a Packard Tri-Carb 2100 TR liquid scintillation analyzer. Receptor binding data was analyzed by non-linear regression of saturation and competition curves using Prisim 3.0 software (GraphPad Software, San Diego, Calif.). Protein concentrations were determined with the Bio-Rad protein using bovine serum albumin as the standard.

[2] = target: T2, δ-receptor (Mus musculus, UniProt P32300); experiment: Function at δ receptor (receptor down regulation assay, HEK 293 cells expressing FLAG-tagged δ-receptor); assay type: cell-based; set-up: FLAG; expressed in transfected cells; host or cells: HEK 293 (G418 selection); conditions: for Function at δ: compounds of Formula I
Procedure: Receptor down regulation assays: HEK 293 cells expressing the FLAG-tagged δ-receptor were grown to near confluence in 100 mm dishes in DMEM media supplemented with 10% fetal calf serum and 0.25 mg/ml G418. Media was replaced with serum-free media prior to overnight incubation with 10 μM or 20 μM of DOP or control compound. Media was aspirated and cell washed twice with cold PBS. Cell homogenates were collected and further washed trice with 50 mM TRIS-HCl, pH 7.5. Protein concentration was measured using Bio-Rad Bradford reagent and equal amount of protein (50 μg) was used for binding assay. Binding assays were performed using [^3H]diprenorphine as the radioactive ligand. Binding assays were conducted as described above.

[3] = target: T3, human kappa receptor (Homo sapiens, UniProt P41145); experiment: Opioid receptor binding assay, κ, [3H]U69593, HEK 293 cell membranes
T3 construct: expressed in transfected cells
Procedure: as §1

[4] = target: T4, mu receptor (Mus musculus, UniProt P42866); experiment: Opioid receptor binding assay, μ, [3H]DAMGO, HEK 293 cell membranes; set-up: species or system rat; conditions: compounds of Formula II, Table III
T4 construct: expressed in transfected cells
Procedure: as §1, with “Opioid” for “Receptor binding assay: Cell membrane preparations were obtained from HEK 293-stable transfectants expressing either the murine δ or μ or the human κ receptor. Opioid”

[5] = target: T5, kappa opioid receptor (Homo sapiens, UniProt P41145); experiment: Function at the kappa opioid receptor; conditions: Table III
T5 construct: expressed in transfected cells

[6] = target: T6, mu opioid receptor (Mus musculus, UniProt P42866); experiment: Function at the mu opioid receptor; conditions: Table III
T6 construct: expressed in transfected cells

[7] = target: T2, δ-receptor; conditions: literature values for comparison compounds; cited from earlier work
[8] = inhibition of [3H]U69593, HEK 293 cell membrane, compounds of Formula I, read-out: IC50 (nM) κ
[9] = compounds of Formula II, Table III, read-out: IC50 κ

T2 sequence (P32300 whole entry): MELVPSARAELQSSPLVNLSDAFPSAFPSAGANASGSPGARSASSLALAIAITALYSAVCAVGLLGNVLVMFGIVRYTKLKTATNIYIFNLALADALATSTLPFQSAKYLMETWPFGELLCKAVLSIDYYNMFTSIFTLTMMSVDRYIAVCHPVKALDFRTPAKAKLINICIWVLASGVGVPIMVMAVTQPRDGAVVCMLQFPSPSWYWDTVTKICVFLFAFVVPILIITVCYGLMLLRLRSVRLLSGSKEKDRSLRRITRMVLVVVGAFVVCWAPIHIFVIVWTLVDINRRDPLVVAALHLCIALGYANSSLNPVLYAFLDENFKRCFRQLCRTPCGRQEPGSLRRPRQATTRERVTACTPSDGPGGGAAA
T1 sequence (P32300 whole entry): as above
T3 sequence (P41145 whole entry): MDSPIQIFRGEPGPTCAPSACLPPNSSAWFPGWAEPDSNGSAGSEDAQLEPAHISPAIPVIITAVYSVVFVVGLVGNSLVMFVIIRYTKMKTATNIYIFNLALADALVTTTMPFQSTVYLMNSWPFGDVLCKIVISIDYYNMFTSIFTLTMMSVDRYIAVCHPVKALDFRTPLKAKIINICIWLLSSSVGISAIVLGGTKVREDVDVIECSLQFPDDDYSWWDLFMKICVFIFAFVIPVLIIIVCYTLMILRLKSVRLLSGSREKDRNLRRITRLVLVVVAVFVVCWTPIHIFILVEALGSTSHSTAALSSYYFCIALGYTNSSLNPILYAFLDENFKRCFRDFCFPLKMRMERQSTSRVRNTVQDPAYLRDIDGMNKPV
T4 sequence (P42866 whole entry): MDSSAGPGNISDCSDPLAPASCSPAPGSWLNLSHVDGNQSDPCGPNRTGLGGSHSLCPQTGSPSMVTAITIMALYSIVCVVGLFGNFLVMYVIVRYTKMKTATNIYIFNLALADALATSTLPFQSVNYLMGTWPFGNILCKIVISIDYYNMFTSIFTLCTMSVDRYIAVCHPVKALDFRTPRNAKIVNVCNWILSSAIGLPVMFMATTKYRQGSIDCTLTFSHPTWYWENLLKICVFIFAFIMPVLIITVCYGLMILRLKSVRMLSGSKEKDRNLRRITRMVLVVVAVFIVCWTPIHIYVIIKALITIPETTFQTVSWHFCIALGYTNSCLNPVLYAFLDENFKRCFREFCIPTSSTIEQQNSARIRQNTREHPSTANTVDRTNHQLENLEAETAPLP
T6 sequence (P42866 whole entry): as above
T5 sequence (P41145 whole entry): as the sequence (P41145 whole entry) above

SMILES | Selectivity κ/δ [1] | Selectivity μ/δ [1] | Function at δ [2] | IC50 [3, 8] [nM] | IC50 [1] [µM] | IC50 [4] [µM] | IC50 [3, 9] [nM] | also measured
CN(C)Cc1nc(-c2cccc(C(C)(C)C)c2)n(-c2cccc(O)c2)n1 [DOP106, 3-[5-(3-tert-Butyl-phenyl)-3-dimethylaminomethyl-[1,2,4,]triazole-1-yl]-phenol] | 7 | 50 | Agonist | 341 ± 20 | – | – | – | –
CN(C)Cc1nc(-c2ccc(C(C)(C)C)cc2)n(-c2cccc(O)c2)n1 [DOP108, 3-[5-(4-tert-Butyl-phenyl)-3-dimethylaminomethyl-[1,2,4,]triazole-1-yl]-phenol] | – | – | Agonist | 3850 ± 311 | – | – | – | –
Cc1ccc(-c2nc(CN(C)C)nn2-c2cccc(O)c2)c(C)c1 [DOP110] | 1.3 | 8.9 | Agonist | 351 ± 95 | – | – | – | –
CN(C)c1nnc(-c2cccc(O)c2)n1-c1ccc(C(C)(C)C)cc1 [DST8S] | – | – | – | – | 2.78 | 0.991 | 2130 | –
CN(C)c1nnc(-c2cccc(O)c2)n1-c1cccc(C(C)(C)C)c1 [DST10S] | – | – | – | – | 0.114 | 0.118 | 23 | Function at the kappa opioid receptor [5]: particularly strong agonist; Function at the mu opioid receptor [6]: moderate to strong antagonist; Function at the delta opioid receptor ([2]; compound of Formula II, Table III): moderate to strong antagonist
C=CCN1C[C@H](C)N([C@H](c2ccc(C(=O)N(CC)CC)cc2)c2cccc(OC)c2)C[C@H]1C [SNC80] | – | – | – | – | – | – | – | Function at δ [7]: Agonist
